The target of assay [1] is human ROCK I (Homo sapiens, UniProt Q13464). The assay is described as follows: ROCK enzyme inhibition assay. In kind it is biochemical. As for the experimental part: ROCK enzyme inhibitory activity of the compounds of the present invention has been assayed as follow. An aqueous solution of Rho kinase substrate MYTP was added to 96-well plate. Following incubation for overnight at 4° C., the plate was blocked by using blocking buffer containing BSA. To the plate was added reaction buffer containing each concentration of compound, suitable concentration of human ROCK I (Caruna Biosciences), ATP, β-glycerol phosphate, EGTA, sodium orthovanadate and DTT, and then the plate was incubated for 1 hour. After washing the plate by washing buffer, anti-phosphothreonin antibody was added to the plate, and then the plate was incubated for 1 hour. After washing the plate by washing buffer again, HRP-conjugated anti-phosphorylated protein antibody was added to the plate, and then the plate was incubated for 1 hour. After washing the plate by washing buffer again, colorimetric substrate TMB microwell peroxidase substrate was added to the plate, and then the plate was incubated for appropriate time. After incubation, sulfuric acid was added to the plate to stop the reaction, and then absorbance (450 nm) was measured by using spectromether. Based, on the absorbance for each compound, the data is fit using Prism software to obtain a IC50 value.
human ROCK I, sequence (Q13464 whole entry): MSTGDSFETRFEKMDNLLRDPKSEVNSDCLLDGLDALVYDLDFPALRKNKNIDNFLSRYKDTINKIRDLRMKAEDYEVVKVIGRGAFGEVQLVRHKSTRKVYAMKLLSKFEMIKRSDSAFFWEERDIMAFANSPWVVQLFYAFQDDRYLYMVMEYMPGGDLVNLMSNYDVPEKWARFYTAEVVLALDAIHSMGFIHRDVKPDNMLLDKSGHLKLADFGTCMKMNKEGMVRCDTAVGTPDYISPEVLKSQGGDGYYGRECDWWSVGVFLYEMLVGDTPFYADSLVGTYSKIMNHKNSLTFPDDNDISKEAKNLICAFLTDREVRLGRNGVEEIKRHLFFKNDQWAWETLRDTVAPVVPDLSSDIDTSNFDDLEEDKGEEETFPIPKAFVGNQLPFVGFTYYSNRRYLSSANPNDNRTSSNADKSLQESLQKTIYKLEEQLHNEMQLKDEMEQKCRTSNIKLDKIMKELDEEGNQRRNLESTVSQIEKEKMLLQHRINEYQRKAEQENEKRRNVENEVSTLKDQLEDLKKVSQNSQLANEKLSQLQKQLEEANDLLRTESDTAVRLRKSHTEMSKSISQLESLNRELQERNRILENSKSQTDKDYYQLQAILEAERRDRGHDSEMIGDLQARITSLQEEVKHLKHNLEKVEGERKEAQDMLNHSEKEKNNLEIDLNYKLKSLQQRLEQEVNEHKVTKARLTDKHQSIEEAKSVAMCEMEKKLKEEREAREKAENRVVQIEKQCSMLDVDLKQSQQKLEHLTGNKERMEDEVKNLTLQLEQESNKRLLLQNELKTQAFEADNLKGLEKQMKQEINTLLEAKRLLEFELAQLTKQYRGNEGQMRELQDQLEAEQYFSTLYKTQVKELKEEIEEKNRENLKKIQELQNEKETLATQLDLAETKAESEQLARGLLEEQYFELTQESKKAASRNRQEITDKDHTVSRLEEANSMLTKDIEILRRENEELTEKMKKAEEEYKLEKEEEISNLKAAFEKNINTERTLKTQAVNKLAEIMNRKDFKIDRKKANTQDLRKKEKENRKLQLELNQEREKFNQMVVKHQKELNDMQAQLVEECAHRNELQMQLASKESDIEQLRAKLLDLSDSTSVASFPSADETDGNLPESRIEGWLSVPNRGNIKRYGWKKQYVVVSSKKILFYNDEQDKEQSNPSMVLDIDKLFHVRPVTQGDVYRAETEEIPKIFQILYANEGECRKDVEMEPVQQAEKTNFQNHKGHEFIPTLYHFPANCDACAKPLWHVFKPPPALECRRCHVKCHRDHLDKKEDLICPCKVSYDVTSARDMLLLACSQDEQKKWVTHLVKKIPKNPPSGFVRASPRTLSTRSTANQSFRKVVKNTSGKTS

Assay [2] deals with Male SD rats. Kind of assay: Changes in hindlimb weight distribution after intra-articular monosodium iodoacetate (MIA) injection. In kind it is in vivo. To be noted: Rattus norvegicus, 504 h; oral administration; MIA-injected rats, three weeks after injection. The text has this: As intra-articular injection of monosodium iodoacetate (MIA) induced human osteoarthritis-like histopathological changes in knee joint, this model would be very useful for the study of human osteoarthritis. Recently, it is reported the clinical scores of the joint pain were closely correlated to the grade of histological findings (J Vet Med Sci 65, 1195, 2003) and this model may be useful for estimation of therapeutic effects of pain with osteoarthritis.
Male SD rats were anesthetized with halothane (Takeda, Japan) and given single intra-articular injection of 1 mg of monosodium iodoacetate (MIA; Sigma, St. Louis, USA) through the infrapatellar ligament of the right knee. MIA was dissolved with physiologic saline and administered in a volume of 50 μl using a 27-gauge, 0.5-inch needle. Three weeks after the injection, hindlimb weight distribution was determined using an incapacitance tester (Linton Instrumentation, Norfork, UK). Rats were allowed to acclimate to the testing apparatus and when stationary, readings were taken over a 5 s period. […] Each group in each experiment was performed in about 8 animals.

Assay [3] concerns Male Wistar rats. Kind of assay: Effects on hindlimb blood flow (laser Doppler). To be noted: po; 10 mg/kg p.o.; rat hindlimb; read-out: % of increase of blood flow. In kind it is in vivo. The source says: As one of the study to clarify the usefulness of the compounds of the present invention for peripheral arterial disease, we conducted a study to evaluate the effects of the compounds on hindlimb blood flow in rats.
Male Wistar rats were anesthetized by intraperitoneal pentobarbital injection (Kanto chemical, Japan) after oral administration of compounds. Rats were placed on a heating plate for subsequent hindlimb blood flow analysis. We measured hindlimb blood flow using a laser Doppler blood flow meter (PeriScan System, Stockholm, Sweden). After the laser Doppler images were recorded, the average perfusion values of both limbs were calculated, and evaluated the effects of compounds on hindlimb blood flow. Each experiment was performed in about 4 animals.

Assay [4] relates to Male Wistar rats. The assay is described as follows: Inhibitory effects on phenylephrine-induced elevation of urethral pressure. As to conditions: Rattus norvegicus, iv; phenylephrine 30 μg/kg i.v.; anesthetized rats; read-out: Inhibition of elevation in urethral pressure ED30. In kind it is in vivo. The source says:
To evaluate the usefulness of the compounds of the present invention for urinary dysfunction associated with benign prostatic hyperplasia, we investigated the inhibitory effects of the intravenous administration of the compounds on phenylephrine-induced elevation of the urethral pressure in rats.
Male Wistar rats were anesthetized with urethane (SIGMA, USA). After midline abdominal incision, catheter to measure the urethral pressure (3.5 Fr, Millar, USA) was inserted into the urethra from top of the bladder. After confirming the Phenylephrine (30 μg/kg i.v.)-induced elevation of the urethral pressure, compounds were administered intravenously in increasing doses. Every 5 min after administration of compounds, Phenylephrine (30 μg/kg i.v.) was injected, and the inhibitory effects of compounds on phenylephrine-induced elevation of urethral pressure were evaluated. Each experiment was performed in about 4 animals.

Assay [5] deals with female C57Bl/6 mice. Kind of assay: Bleomycin-induced lung fibrosis model, hydroxyproline content of the lung. In kind it is in vivo, mouse. As to conditions: 1 mg/kg orally once a day from day 1 to day 35; lung removed day 36. As for the experimental part: To induce pulmonary fibrosis, ten mg/kg bleomycin (Nipponkayaku Industries Ltd, Tokyo, Japan) was intraperitoneally injected into female C57Bl/6 mice (9 weeks old, Charles River Laboratories Japan, Inc.) once a day from day 1 to day 10. Bleomycin was dissolved in saline and control mice were intraperitoneally injected with saline. The compound or vehicle was orally administered to the mice once a day from day 1 to day 35. On day 36, mice were sacrificed under anesthesia of pentobarbital and the lung was surgically removed. Hydroxyproline content of the lung was assayed according to the method of Woessner JF (1).

The test system of assay [6] is beagle dogs. Kind of assay: In vivo eye pressure lowering effect (IOP), beagle dogs. To be noted: beagle dog, 10 mM applied topically. As for the experimental part: (§1) The intraocular pressure (IOP) was determined in beagle dogs and rats with tonometer (TONO-PEN™, MENTOR and TonoLab™, M. E. Technica), specially calibrated for the eye of the particular species. In beagle dogs, the cornea was anesthetized with oxibuprocain before each IOP measurement.

Assay [7] has as its system rats. Kind of assay: In vivo eye pressure lowering effect (IOP), rats. To be noted: rat, 10 mM applied topically. As for the experimental part:
as §1

Counter-ions that a name gives are not always drawn. Where only a bound is given, the exact number is not on record here.

Turning to `COc1nc(N[C@H]2CC[C@H](N)CC2)ccc1C(N)=O` [Example 1, 6-[(trans-4-aminocyclohexyl)amino]-2-methoxynicotinamide dihydrochloride], the IC50 in assay [1] stood at 2 nM. In addition, the ED50 in assay [2] was < 1 mg/kg. In addition, the change in vivo at 10 mg/kg in assay [3] was > 130%. In addition, the ED30 in assay [4] is < 0.5 mg/kg.
Consider `COc1nc(N[C@H]2CC[C@H](N)CC2)c(F)cc1C(N)=O` [Example 2, 6-[(trans-4-aminocyclohexyl)amino]-5-fluoro-2-methoxynicotinamide dihydrochloride], for which, in assay [1], the 50% inhibitory concentration (IC50) worked out at 2 nM. Moreover, the ED50 in assay [2] is < 1 mg/kg. The change in vivo at 10 mg/kg in assay [3] was > 130%. Moreover, the ED30 in assay [4] is < 0.5 mg/kg.
Take `COc1nc(N[C@H]2CC[C@H](N)CC2)c(F)cc1C(N)=O` [Example 3, 6-[(trans-4-aminocyclohexyl)amino]-5-fluoro-2-methoxynicotinamide]: the “reduction of hydroxyproline content of the lung” value in assay [5] was determined as 66%. For the same molecule, in assay [6], the “IOP change in animals after 4 hours” value is reported as −16% reduced in beagle dog.
For the molecule `COc1nc(N[C@H]2CC[C@H](N)CC2)c(Cl)cc1C(N)=O` [Example 4, 6-[(trans-4-aminocyclohexyl)amino]-5-chloro-2-methoxynicotinamide], half-maximal inhibition in assay [1] (IC50) required 5 nM. Besides, in assay [2], the ED50 was < 1 mg/kg. Besides, in assay [3], the change in vivo at 10 mg/kg is > 130%. Moreover, in assay [4], the ED30 is < 0.5 mg/kg.
Taken in the same sequence, the figures for `COc1nc(N[C@H]2CC[C@H](N)CC2)c(Br)cc1C(N)=O` [Example 5, 6-[(trans-4-aminocyclohexyl)amino]-5-bromo-2-methoxynicotinamide] were 39 nM, < 3 mg/kg, > 130% and < 0.5 mg/kg.
Molecule `CCOc1nc(N[C@H]2CC[C@H](N)CC2)ccc1C(N)=O` [Example 6, 6-[(trans-4-aminocyclohexyl)amino]-2-ethoxynicotinamide dihydrochloride] registered an IC50 in assay [1] of 10 nM. The change in vivo at 10 mg/kg in assay [3] was > 130%. The ED30 in assay [4] is < 0.5 mg/kg.
In turn, `CCOc1nc(N[C@H]2CC[C@H](N)CC2)c(F)cc1C(N)=O` [Example 7, 6-[(trans-4-aminocyclohexyl)amino]-2-ethoxy-5-fluoronicotinamide dihydrochloride] returned an IC50 in assay [1] of 9 nM. Also, the change in vivo at 10 mg/kg in assay [3] was > 130%. The ED30 in assay [4] is < 0.5 mg/kg.
Consider `CCOc1nc(N[C@H]2CC[C@H](N)CC2)c(Br)cc1C(N)=O` [Example 9, 6-[(trans-4-aminocyclohexyl)amino]-5-bromo-2-ethoxynicotinamide], for which the “IOP change in animals after 4 hours” value in assay [7] is −30% reduced in rat.
Regarding `CCOc1nc(N[C@H]2CC[C@H](N)CC2)c(I)cc1C(N)=O` [Example 10, 6-[(trans-4-aminocyclohexyl)amino]-5-iodo-2-ethoxynicotinamide], the “IOP change in animals after 4 hours” value in assay [7] is on record as −26% reduced in rat.
In assay [1], `COc1nc(N[C@H]2CC[C@H](NS(C)(=O)=O)CC2)c(F)cc1C(N)=O` [Example 28, 6-[(trans-4-methanesulfonylaminocyclohexyl)amino]-5-fluoro-2-methoxynicotinamide] came in with a 50% inhibitory concentration (IC50) of 58 nM. Also, in assay [3], the change in vivo at 10 mg/kg is > 130%. Also, the ED30 in assay [4] is < 0.5 mg/kg.
Consider `COc1nc(N[C@H]2CC[C@H](NC3CCS(=O)(=O)CC3)CC2)c(F)cc1C(N)=O` [Example 30, 6-({trans-4-[(1,1-dioxidotetrahydro-2H-thiopyran-4-yl)amino]cyclohexyl}amino)-5-fluoro-2-methoxynicotinamide], for which the IC50 in assay [1] was 7 nM. Also, the change in vivo at 10 mg/kg in assay [3] was > 130%. Also, the ED30 in assay [4] was < 0.5 mg/kg.

For the origin of these results see patent publication US20110166161A1, “HETEROCYCLIC CARBOXAMIDE COMPOUNDS” (Astellas Pharma Inc., priority 2008, published 2011).
